Test results published in patent US20150196033A1, “PESTICIDAL COMPOSITIONS AND PROCESSES RELATED THERETO” (priority 2012, published 2015).
Where two headings read alike, the source gives them in different places.

Key:
[1] = tested on: Beet Armyworm (BAW) (Spodoptera exigua); assay: Bioassay on Beet Armyworm (BAW), 128-well diet tray assay; format: in vivo; conditions: Spodoptera exigua, 168 h, read-out: Rating BAW (% Control (or Mortality))
Procedure: (§1) Certain molecules disclosed in this document were tested against BAW and CEW using procedures described in the following examples. In the reporting of the results, the “BAW & CEW Rating Table” was used (See Table Section).
Bioassays on BAW (Spodoptera exigua)
(§2) Trays were covered with a clear self-adhesive cover and held at 25° C., 14:10 light-dark for five to seven days. Percent mortality was recorded for the larvae in each well; activity in the eight wells was then averaged. The results are indicated in the table entitled “Table ABC: Biological Results” (See Table Section).

[2] = tested on: Corn Earworm (CEW) (Helicoverpa zea); assay: Bioassay on Corn Earworm (CEW), 128-well diet tray assay; format: in vivo; conditions: Helicoverpa zea, 168 h; for mortality at 0.5 µg/cm2: 0.5 μg/cm2 on artificial diet, read-out: Rating CEW (% Control (or Mortality)), *Tested at 0.5 μg/cm2; for mortality at 50 µg/cm2: read-out: Rating CEW (% Control (or Mortality))
Procedure: as §1
Bioassays on CEW (Helicoverpa zea)
as §2

[3] = 50 μg/cm2 on artificial diet, second instar larvae, five to seven days
[4] = second instar larvae, five to seven days

| SMILES | mortality at 50 µg/cm2 [1, 3] | mortality at 0.5 µg/cm2 [2, 4] | mortality at 50 µg/cm2 [2, 3] | mortality at 50 µg/cm2 [1] | mortality at 50 µg/cm2 [2] |
| --- | --- | --- | --- | --- | --- |
| CC(C)c1ccc(F)cc1N1C(=O)CS/C1=N\C(=O)Nc1ccc(-c2ncn(-c3ccc(OC(F)(F)F)cc3)n2)cc1 [Molecule A86] | 50 to 100% | 50 to 100% | – | – | – |
| Cc1cccc(N2C(=O)CS/C2=N\C(=O)Nc2ccc(-c3ncn(-c4ccc(OC(F)(F)F)cc4)n3)cc2)c1C(C)C [Molecule A108] | 50 to 100% | 50 to 100% | – | – | – |
| O=C(/N=C(\S)Nc1ccccc1C1CC1)Nc1ccc(-c2ncn(-c3ccc(OC(F)(F)F)cc3)n2)cc1 [Molecule A63] | 50 to 100% | 50 to 100% | – | – | – |
| CC(C)c1ccccc1NC(=O)NC(=O)Nc1ccc(-c2ncn(-c3ccc(OC(F)(F)F)cc3)n2)cc1 [Molecule A13, 1-(2-isopropylphenyl)-3-[[4-[1-[4-(trifluoromethoxy)phenyl]-1,2,4-triazol-3-yl]phenyl]carbamoyl]urea] | 50 to 100% | – | 50 to 100% | – | – |
| COc1ccc(Cl)cc1N1C(=O)CS/C1=N\C(=O)Nc1ccc(-c2ncn(-c3ccc(OC(F)(F)F)cc3)n2)cc1 [Molecule A111] | 50 to 100% | 50 to 100% | – | – | – |
| Cc1c(F)cccc1N1C(=O)CS/C1=N\C(=O)Nc1ccc(-c2ncn(-c3ccc(OC(F)(F)F)cc3)n2)cc1 [Molecule A93] | 50 to 100% | 50 to 100% | – | – | – |
| COc1ccc(N/C(S)=C(\C#N)C(=O)Nc2ccc(-c3ncn(-c4ccc(OC(F)(F)F)cc4)n3)cc2)c(C)c1 [Molecule A26, (Z)-2-Cyano-3-mercapto-3-((4-methoxy-2-methylphenyl)amino)-N-(4-(1-(4-(trifluoromethoxy)phenyl)-1H-1,2,4-triazol-3-yl)phenyl)acrylamide] | 0% | – | 0% | – | – |
| O=C(/N=C(\S)Nc1ccccc1Cc1ccccc1)Nc1ccc(-c2ncn(-c3ccc(OC(F)(F)F)cc3)n2)cc1 [Molecule A101] | 50 to 100% | 50 to 100% | – | – | – |
| Cc1cccc(Cl)c1N1C(=O)CS/C1=N\C(=O)Nc1ccc(-c2ncn(-c3ccc(OC(F)(F)F)cc3)n2)cc1 [Molecule A74] | 50 to 100% | 50 to 100% | – | – | – |
| CCC1CS/C(=N\C(=O)Nc2ccc(-c3ncn(-c4ccc(OC(F)(F)F)cc4)n3)cc2)N1c1c(C)cc(C)cc1C (stereo not shown) [Molecule A38] | 50 to 100% | – | 50 to 100% | – | – |
| Cc1cc(C)c(N2CC(C)CS/C2=N\C(=O)Nc2ccc(-c3ncn(-c4ccc(OC(F)(F)F)cc4)n3)cc2)c(C)c1 (stereo not shown) [Molecule A41] | 50 to 100% | – | 50 to 100% | – | – |
| CC(C)C(=O)OCS/C(=N/C(=O)Nc1ccc(-c2ncn(-c3ccc(OC(F)(F)F)cc3)n2)cc1)Nc1c(Cl)cccc1Cl [Molecule A58] | 50 to 100% | – | 50 to 100% | – | – |
| CC(C)c1ccccc1N1C(=O)CS/C1=N\C(=O)Nc1ccc(-c2ncn(-c3ccc(OC(F)(F)C(F)(F)F)cc3)n2)cc1 [Molecule A115] | 50 to 100% | 50 to 100% | – | – | – |
| Cc1ccc(N/C(S)=N/C(=O)Nc2ccc(-c3ncn(-c4ccc(OC(F)(F)F)cc4)n3)cc2)c(C)c1 [Molecule A68] | 50 to 100% | 50 to 100% | – | – | – |
| COc1ccc(N/C(S)=N/C(=O)Nc2ccc(-c3ncn(-c4ccc(OC(F)(F)F)cc4)n3)cc2)c(C)c1 [Molecule A98] | 50 to 100% | 50 to 100% | – | – | – |
| CC(C)C(=O)OCS/C(=N\C(=O)Nc1ccc(-c2ncn(-c3ccc(OC(F)(F)F)cc3)n2)cc1)Nc1ccccc1C(C)C [Molecule A5, (Z)-((N-(2-Isopropylphenyl)-N′-((4-(1-(4-(trifluoromethoxy)phenyl)-1H-1,2,4-triazol-3-yl)phenyl)carbamoyl)carbamimidoyl)thio)methyl isobutyrate] | 50 to 100% | – | 50 to 100% | – | – |
| Cc1ccc(N/C(S)=N/C(=O)Nc2ccc(-c3ncn(-c4ccc(OC(F)(F)F)cc4)n3)cc2)c(C(C)C)c1 [Molecule A84] | 50 to 100% | 50 to 100% | – | – | – |
| O=C(/N=C1\SCC(=O)N1c1ccccc1Cc1ccccc1)Nc1ccc(-c2ncn(-c3ccc(OC(F)(F)F)cc3)n2)cc1 [Molecule A105] | 50 to 100% | 50 to 100% | – | – | – |
| CC(C)c1c(F)cccc1N1C(=O)CS/C1=N\C(=O)Nc1ccc(-c2ncn(-c3ccc(OC(F)(F)F)cc3)n2)cc1 [Molecule A109] | 50 to 100% | 50 to 100% | – | – | – |
| Cc1cccc(C)c1N/C(=N/C(=O)Nc1ccc(-c2ncn(-c3ccc(C(F)(F)F)cc3)n2)cc1)SCOC(=O)CNC(=O)OCc1ccccc1 [Molecule A8, (Z)-((N-(2,6-Dimethylphenyl)-N′-((4-(1-(4-(trifluoromethyl)phenyl)-1H-1,2,4-triazol-3-yl)phenyl)carbamoyl)carbamimidoyl)thio)methyl 2-(((benzyloxy)carbonyl)amino)acetate] | – | – | – | 50 to 100% | 50 to 100% |
